Reference: PMC9067983, “Identification of highly selective type II kinase inhibitors with chiral peptidomimetic tails” (Journal of Enzyme Inhibition and Medicinal Chemistry, 2022)
Where a SMILES comes first, the peptide text is derived from it. [ ]: non-standard residue; d: D form. The star is where a group is joined. X1 = Cc1ccc(Nc2ncc3c(n2)N(C)C(=O)N(c2cc(C(=O)*)ccc2C)C3)cn1; Aib = CC(C)(N)C(=O)O

How the values were obtained:
Assay in all cases: kinase selectivity profiling
Type in all cases: biochemical
Settings in all cases: 10µM ATP, read-out: % inhibition (relative to DMSO)
PKCtheta = molecular target: T1, PKCtheta (Homo sapiens, UniProt Q04759)
T1 construct: purchased Reaction Biology Corp
Description: (§1) Full panel kinase profiling and kinase IC50 measurement were performed by using Reaction Biology Corp. (San Diego, USA).

CDK14/cyclin Y (PFTK1) = molecular target: T2, CDK14/cyclin Y (PFTK1) (Homo sapiens, UniProt O94921)
T2 construct: purchased Reaction Biology Corp
Description: as §1

KDR/VEGFR2 = molecular target: T3, KDR/VEGFR2 (Homo sapiens, UniProt P35968)
T3 construct: purchased Reaction Biology Corp
Description: as §1

p38a/MAPK14 = molecular target: T4, p38a/MAPK14 (Homo sapiens, UniProt Q16539)
T4 construct: purchased Reaction Biology Corp
Description: as §1

ALK3/BMPR1A = molecular target: T5, ALK3/BMPR1A (Homo sapiens, UniProt P36894)
T5 construct: purchased Reaction Biology Corp
Description: as §1

PKCepsilon = molecular target: T6, PKCepsilon (Homo sapiens, UniProt Q02156)
T6 construct: purchased Reaction Biology Corp
Description: as §1

CHK1 = molecular target: T7, CHK1 (Homo sapiens, UniProt O14757)
T7 construct: purchased Reaction Biology Corp
Description: as §1

STK32B/YANK2 = molecular target: T8, STK32B/YANK2 (Homo sapiens, UniProt Q9NY57)
T8 construct: purchased Reaction Biology Corp
Description: as §1

TRKC = molecular target: T9, TRKC (Homo sapiens, UniProt Q16288)
T9 construct: purchased Reaction Biology Corp
Description: as §1

MLK4 = molecular target: T10, MLK4 (Homo sapiens, UniProt Q5TCX8)
T10 construct: purchased Reaction Biology Corp
Description: as §1

BMPR2 = molecular target: T11, BMPR2 (Homo sapiens, UniProt Q13873)
T11 construct: purchased Reaction Biology Corp
Description: as §1

CK1g3 = molecular target: T12, CK1g3 (Homo sapiens, UniProt Q9Y6M4)
T12 construct: purchased Reaction Biology Corp
Description: as §1

MYO3A = molecular target: T13, MYO3A (Homo sapiens, UniProt Q8NEV4)
T13 construct: purchased Reaction Biology Corp
Description: as §1

ERN2/IRE2 = molecular target: T14, ERN2/IRE2 (Homo sapiens, UniProt Q76MJ5)
T14 construct: purchased Reaction Biology Corp
Description: as §1

BTK = molecular target: T15, BTK (Homo sapiens, UniProt Q06187)
T15 construct: purchased Reaction Biology Corp
Description: as §1

PHKg1 = molecular target: T16, PHKg1 (Homo sapiens, UniProt Q16816)
T16 construct: purchased Reaction Biology Corp
Description: as §1

FGFR2 = molecular target: T17, FGFR2 (Homo sapiens, UniProt P21802)
T17 construct: purchased Reaction Biology Corp
Description: as §1

RAF1 = molecular target: T18, RAF1 (Homo sapiens, UniProt P04049)
T18 construct: purchased Reaction Biology Corp
Description: as §1

RIPK3 = molecular target: T19, RIPK3 (Homo sapiens, UniProt Q9Y572)
T19 construct: purchased Reaction Biology Corp
Description: as §1

Abl1 = molecular target: T20, Abl1 (Homo sapiens, UniProt P00519)
T20 construct: purchased Reaction Biology Corp
Description: as §1

MSSK1/STK23 = molecular target: T21, MSSK1/STK23 (Homo sapiens, UniProt Q9UPE1)
T21 construct: purchased Reaction Biology Corp
Description: as §1

CLK1 = molecular target: T22, CLK1 (Homo sapiens, UniProt P49759)
T22 construct: purchased Reaction Biology Corp
Description: as §1

PKCd = molecular target: T23, PKCd (Homo sapiens, UniProt Q05655)
T23 construct: purchased Reaction Biology Corp
Description: as §1

MAPKAPK5/PRAK = molecular target: T24, MAPKAPK5/PRAK (Homo sapiens, UniProt Q8IW41)
T24 construct: purchased Reaction Biology Corp
Description: as §1

PDGFRa = molecular target: T25, PDGFRa (Homo sapiens, UniProt P16234)
T25 construct: purchased Reaction Biology Corp
Description: as §1

EGFR = molecular target: T26, EGFR (Homo sapiens, UniProt P00533)
T26 construct: purchased Reaction Biology Corp
Description: as §1

EPHB1 = molecular target: T27, EPHB1 (Homo sapiens, UniProt P54762)
T27 construct: purchased Reaction Biology Corp
Description: as §1

NIM1 = molecular target: T28, NIM1 (Homo sapiens, UniProt Q8IY84)
T28 construct: purchased Reaction Biology Corp
Description: as §1

FER = molecular target: T29, FER (Homo sapiens, UniProt P16591)
T29 construct: purchased Reaction Biology Corp
Description: as §1

IR = molecular target: T30, IR (Homo sapiens, UniProt P06213)
T30 construct: purchased Reaction Biology Corp
Description: as §1

MARK2/PAR-1Ba = molecular target: T31, MARK2/PAR-1Ba (Homo sapiens, UniProt Q7KZI7)
T31 construct: purchased Reaction Biology Corp
Description: as §1

STK38L/NDR2 = molecular target: T32, STK38L/NDR2 (Homo sapiens, UniProt Q9Y2H1)
T32 construct: purchased Reaction Biology Corp
Description: as §1

HPK1/MAP4K1 = molecular target: T33, HPK1/MAP4K1 (Homo sapiens, UniProt Q92918)
T33 construct: purchased Reaction Biology Corp
Description: as §1

Lck = molecular target: T34, Lck (Homo sapiens, UniProt P06239)
T34 construct: purchased Reaction Biology Corp
Description: as §1

DCAMKL2 = molecular target: T35, DCAMKL2 (Homo sapiens, UniProt Q8N568)
T35 construct: purchased Reaction Biology Corp
Description: as §1

WNK2 = molecular target: T36, WNK2 (Homo sapiens, UniProt Q9Y3S1)
T36 construct: purchased Reaction Biology Corp
Description: as §1

CK2a = molecular target: T37, CK2a (Homo sapiens, UniProt P68400)
T37 construct: purchased Reaction Biology Corp
Description: as §1

ALK2/ACVR1 = molecular target: T38, ALK2/ACVR1 (Homo sapiens, UniProt Q04771)
T38 construct: purchased Reaction Biology Corp
Description: as §1

PIM3 = molecular target: T39, PIM3 (Homo sapiens, UniProt Q86V86)
T39 construct: purchased Reaction Biology Corp
Description: as §1

ERK7/MAPK15 = molecular target: T40, ERK7/MAPK15 (Homo sapiens, UniProt Q8TD08)
T40 construct: purchased Reaction Biology Corp
Description: as §1

DYRK4 = molecular target: T41, DYRK4 (Homo sapiens, UniProt Q9NR20)
T41 construct: purchased Reaction Biology Corp
Description: as §1

CDK9/cyclin K = molecular target: T42, CDK9/cyclin K (Homo sapiens, UniProt P50750)
T42 construct: purchased Reaction Biology Corp
Description: as §1

MAK = molecular target: T43, MAK (Homo sapiens, UniProt P20794)
T43 construct: purchased Reaction Biology Corp
Description: as §1

T34 sequence (P06239 whole entry): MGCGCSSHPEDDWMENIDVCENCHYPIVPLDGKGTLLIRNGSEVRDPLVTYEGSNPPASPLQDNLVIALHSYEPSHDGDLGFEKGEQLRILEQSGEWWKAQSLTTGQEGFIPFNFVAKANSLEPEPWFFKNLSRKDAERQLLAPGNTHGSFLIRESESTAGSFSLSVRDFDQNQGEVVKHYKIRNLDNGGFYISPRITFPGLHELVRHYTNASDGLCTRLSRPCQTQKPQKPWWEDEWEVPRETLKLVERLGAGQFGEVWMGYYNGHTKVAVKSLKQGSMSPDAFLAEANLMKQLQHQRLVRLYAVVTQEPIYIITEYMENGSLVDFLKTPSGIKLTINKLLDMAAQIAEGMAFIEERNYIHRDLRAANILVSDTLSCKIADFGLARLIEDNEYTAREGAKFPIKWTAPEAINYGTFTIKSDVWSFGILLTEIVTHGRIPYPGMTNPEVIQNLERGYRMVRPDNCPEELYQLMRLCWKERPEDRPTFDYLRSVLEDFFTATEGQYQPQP
T32 sequence (Q9Y2H1 whole entry): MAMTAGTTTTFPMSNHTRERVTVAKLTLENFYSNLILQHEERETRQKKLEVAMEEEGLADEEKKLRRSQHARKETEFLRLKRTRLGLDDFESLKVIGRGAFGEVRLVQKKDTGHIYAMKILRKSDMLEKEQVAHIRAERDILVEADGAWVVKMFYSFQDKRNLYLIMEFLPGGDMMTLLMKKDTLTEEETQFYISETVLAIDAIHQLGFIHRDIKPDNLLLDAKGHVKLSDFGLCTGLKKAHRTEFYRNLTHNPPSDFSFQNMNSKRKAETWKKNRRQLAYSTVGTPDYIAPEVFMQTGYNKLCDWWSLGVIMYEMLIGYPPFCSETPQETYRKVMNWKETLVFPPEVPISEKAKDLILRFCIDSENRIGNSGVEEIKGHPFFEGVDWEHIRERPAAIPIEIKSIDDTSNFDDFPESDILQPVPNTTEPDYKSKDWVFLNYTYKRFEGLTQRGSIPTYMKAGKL
T17 sequence (P21802 22-821): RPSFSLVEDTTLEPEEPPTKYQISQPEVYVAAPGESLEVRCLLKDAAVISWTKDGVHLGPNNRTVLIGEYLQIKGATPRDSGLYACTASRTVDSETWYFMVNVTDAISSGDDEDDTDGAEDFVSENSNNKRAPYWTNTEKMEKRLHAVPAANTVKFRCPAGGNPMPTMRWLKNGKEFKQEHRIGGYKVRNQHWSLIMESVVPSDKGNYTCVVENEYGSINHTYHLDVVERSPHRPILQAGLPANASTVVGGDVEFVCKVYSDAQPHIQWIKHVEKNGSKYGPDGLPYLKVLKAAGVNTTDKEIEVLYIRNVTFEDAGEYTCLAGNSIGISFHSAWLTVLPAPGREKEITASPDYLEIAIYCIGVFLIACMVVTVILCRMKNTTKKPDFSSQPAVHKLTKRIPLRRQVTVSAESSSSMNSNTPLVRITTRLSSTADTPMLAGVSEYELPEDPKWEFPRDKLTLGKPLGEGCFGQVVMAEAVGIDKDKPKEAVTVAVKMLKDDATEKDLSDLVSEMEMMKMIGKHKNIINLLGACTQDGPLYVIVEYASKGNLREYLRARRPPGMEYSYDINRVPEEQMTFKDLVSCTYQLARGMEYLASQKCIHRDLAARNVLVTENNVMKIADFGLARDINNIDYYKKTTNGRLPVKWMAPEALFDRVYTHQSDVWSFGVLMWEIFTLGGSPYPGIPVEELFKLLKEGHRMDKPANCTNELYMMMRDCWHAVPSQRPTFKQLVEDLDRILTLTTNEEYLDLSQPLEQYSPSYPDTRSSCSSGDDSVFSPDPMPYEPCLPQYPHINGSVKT
T13 sequence (Q8NEV4 whole entry): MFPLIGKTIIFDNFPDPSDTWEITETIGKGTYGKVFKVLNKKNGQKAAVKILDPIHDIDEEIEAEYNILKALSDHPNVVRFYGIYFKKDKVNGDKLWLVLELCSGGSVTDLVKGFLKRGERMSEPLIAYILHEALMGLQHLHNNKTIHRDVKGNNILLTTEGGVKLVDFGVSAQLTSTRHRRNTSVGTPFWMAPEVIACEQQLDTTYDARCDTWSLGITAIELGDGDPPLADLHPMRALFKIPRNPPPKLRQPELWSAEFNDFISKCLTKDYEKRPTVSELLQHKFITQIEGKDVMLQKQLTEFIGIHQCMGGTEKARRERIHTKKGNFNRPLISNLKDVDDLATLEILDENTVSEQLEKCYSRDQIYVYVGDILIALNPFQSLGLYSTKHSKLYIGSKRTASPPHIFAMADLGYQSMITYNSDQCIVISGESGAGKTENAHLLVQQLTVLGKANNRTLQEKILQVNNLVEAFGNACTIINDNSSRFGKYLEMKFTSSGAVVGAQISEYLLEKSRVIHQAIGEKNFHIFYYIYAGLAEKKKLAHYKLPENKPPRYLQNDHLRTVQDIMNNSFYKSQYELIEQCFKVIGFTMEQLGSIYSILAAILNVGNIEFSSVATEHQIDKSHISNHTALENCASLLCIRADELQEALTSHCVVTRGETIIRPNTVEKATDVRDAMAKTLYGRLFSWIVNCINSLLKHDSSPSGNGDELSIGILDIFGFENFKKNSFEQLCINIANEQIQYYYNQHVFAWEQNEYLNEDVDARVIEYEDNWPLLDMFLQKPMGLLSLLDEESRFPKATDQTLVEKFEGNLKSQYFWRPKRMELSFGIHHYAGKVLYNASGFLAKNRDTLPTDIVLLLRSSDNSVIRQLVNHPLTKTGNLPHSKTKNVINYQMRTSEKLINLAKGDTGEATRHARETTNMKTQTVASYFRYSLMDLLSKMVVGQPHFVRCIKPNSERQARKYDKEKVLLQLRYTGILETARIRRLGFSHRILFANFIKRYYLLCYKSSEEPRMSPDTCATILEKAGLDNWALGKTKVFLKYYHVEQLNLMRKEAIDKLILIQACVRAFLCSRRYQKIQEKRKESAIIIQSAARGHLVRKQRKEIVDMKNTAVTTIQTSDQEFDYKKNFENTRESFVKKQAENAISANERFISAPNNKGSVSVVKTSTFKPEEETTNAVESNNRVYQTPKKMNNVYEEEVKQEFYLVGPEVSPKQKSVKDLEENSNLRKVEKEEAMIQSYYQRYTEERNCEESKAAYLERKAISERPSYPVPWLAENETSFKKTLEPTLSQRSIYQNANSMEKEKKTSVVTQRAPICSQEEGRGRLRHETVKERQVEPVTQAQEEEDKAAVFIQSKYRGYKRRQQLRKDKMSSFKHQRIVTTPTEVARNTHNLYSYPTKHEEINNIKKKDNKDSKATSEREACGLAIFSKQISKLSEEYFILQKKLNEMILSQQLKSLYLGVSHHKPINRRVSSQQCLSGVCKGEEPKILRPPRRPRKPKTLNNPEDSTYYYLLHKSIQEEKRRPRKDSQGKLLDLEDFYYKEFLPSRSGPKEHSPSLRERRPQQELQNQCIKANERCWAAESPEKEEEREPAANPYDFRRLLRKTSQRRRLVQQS
T21 sequence (Q9UPE1 whole entry): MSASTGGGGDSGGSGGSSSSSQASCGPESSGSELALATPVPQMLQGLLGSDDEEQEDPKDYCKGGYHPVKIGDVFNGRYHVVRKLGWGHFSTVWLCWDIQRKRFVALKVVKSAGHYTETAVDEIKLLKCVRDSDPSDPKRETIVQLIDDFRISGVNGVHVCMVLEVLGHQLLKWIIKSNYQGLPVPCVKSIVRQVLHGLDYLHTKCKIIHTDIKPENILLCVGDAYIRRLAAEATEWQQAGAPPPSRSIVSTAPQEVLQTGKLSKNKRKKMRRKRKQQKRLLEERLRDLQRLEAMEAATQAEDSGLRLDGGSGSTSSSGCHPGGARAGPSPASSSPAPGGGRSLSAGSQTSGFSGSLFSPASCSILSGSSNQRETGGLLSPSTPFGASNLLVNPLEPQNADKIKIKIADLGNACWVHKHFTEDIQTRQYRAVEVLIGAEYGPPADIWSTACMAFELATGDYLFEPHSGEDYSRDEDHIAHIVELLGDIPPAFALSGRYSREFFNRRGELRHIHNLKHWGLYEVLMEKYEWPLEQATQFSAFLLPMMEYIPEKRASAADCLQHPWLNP
T20 sequence (P00519 whole entry): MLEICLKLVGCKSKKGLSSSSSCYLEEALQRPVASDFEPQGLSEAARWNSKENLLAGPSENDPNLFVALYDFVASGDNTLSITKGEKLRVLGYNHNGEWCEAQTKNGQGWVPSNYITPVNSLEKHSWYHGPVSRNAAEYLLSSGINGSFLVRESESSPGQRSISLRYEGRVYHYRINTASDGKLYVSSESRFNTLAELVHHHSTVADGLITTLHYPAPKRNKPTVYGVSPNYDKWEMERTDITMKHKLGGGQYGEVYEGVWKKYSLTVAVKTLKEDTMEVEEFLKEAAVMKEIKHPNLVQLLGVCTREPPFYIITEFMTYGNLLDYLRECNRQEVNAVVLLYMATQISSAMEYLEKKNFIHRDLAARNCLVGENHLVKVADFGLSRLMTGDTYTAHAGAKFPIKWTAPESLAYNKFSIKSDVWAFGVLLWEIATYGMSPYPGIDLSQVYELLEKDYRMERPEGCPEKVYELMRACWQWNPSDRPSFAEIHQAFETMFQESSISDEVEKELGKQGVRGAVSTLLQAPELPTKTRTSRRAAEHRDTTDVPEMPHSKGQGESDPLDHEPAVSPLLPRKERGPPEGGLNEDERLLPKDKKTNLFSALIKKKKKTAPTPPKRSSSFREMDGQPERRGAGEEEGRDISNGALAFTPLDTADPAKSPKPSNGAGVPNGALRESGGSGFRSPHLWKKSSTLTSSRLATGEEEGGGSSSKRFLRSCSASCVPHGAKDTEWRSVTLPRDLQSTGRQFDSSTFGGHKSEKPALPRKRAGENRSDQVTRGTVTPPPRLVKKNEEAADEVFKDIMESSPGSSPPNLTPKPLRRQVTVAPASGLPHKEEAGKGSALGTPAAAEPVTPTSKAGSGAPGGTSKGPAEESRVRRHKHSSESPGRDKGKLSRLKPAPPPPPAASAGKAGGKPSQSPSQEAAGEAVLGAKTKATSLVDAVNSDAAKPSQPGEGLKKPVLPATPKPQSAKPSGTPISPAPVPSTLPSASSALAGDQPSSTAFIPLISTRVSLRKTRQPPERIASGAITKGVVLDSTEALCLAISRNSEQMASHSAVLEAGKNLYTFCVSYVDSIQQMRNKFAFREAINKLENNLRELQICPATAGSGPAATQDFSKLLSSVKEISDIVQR

`Cc1ccc(Nc2ncc3c(n2)N(C)C(=O)N(c2cc(C(=O)N[C@H](C(=O)N4CCC[C@H]4C(=O)NC(C)(C)C(=O)N[C@@H](CC(C)C)C(=O)N(C)C)C(C)C)ccc2C)C3)cn1` [7a, (S)-N-(1-(((S)-1-(dimethylamino)-4-methyl-1-oxopentan-2-yl)amino)-2-methyl-1-oxopropan-2-yl)-1-((4-methyl-3-(1-methyl-7-((6-methylpyridin-3-yl)amino)-2-oxo-1,4-dihydropyrimido[4,5-d]pyrimidin-3(2H)-yl)benzoyl)-L-valyl)pyrrolidine-2-carboxamide] (X1-VP[Aib]L-NMe2) gave an inhibition at 1 µM (PKCtheta) of 0%, an inhibition at 1 µM (CDK14/cyclin Y (PFTK1)) of 6% and an inhibition at 1 µM (KDR/VEGFR2) of 12%. The inhibition at 1 µM (p38a/MAPK14) was 15%, the inhibition at 1 µM (ALK3/BMPR1A) was 3% and the inhibition at 1 µM (PKCepsilon) was 1%. It also gave an inhibition at 1 µM (CHK1) of 0%, an inhibition at 1 µM (STK32B/YANK2) of 16% and an inhibition at 1 µM (TRKC) of 21%. The inhibition at 1 µM (MLK4) was 7%, the inhibition at 1 µM (BMPR2) was 10% and the inhibition at 1 µM (CK1g3) was 0%. The inhibition at 1 µM (MYO3A) was 0%, the inhibition at 1 µM (ERN2/IRE2) was 2% and the inhibition at 1 µM (BTK) was 6%. The inhibition at 1 µM (PHKg1) was 7%, the inhibition at 1 µM (FGFR2) was 12% and the inhibition at 1 µM (RAF1) was 69%. The inhibition at 1 µM (RIPK3) was 0%, the inhibition at 1 µM (Abl1) was 63% and the inhibition at 1 µM (MSSK1/STK23) was 10%. For the same molecule, the inhibition at 1 µM (CLK1) was 5%, the inhibition at 1 µM (PKCd) was 0% and the inhibition at 1 µM (MAPKAPK5/PRAK) was 8%. The inhibition at 1 µM (PDGFRa) was 31%, the inhibition at 1 µM (EGFR) was 0% and the inhibition at 1 µM (EPHB1) was 16%. For the same molecule, the inhibition at 1 µM (NIM1) was 4%, the inhibition at 1 µM (FER) was 0% and the inhibition at 1 µM (IR) was 0%. It also gave an inhibition at 1 µM (MARK2/PAR-1Ba) of 0%, an inhibition at 1 µM (STK38L/NDR2) of 4% and an inhibition at 1 µM (HPK1/MAP4K1) of 0%. For the same molecule, the inhibition at 1 µM (Lck) was 94%, the inhibition at 1 µM (DCAMKL2) was 0% and the inhibition at 1 µM (WNK2) was 7%. For the same molecule, the inhibition at 1 µM (CK2a) was 5%, the inhibition at 1 µM (ALK2/ACVR1) was 2% and the inhibition at 1 µM (PIM3) was 0%. It also gave an inhibition at 1 µM (ERK7/MAPK15) of 3%, an inhibition at 1 µM (DYRK4) of 3% and an inhibition at 1 µM (CDK9/cyclin K) of 0%. It also gave an inhibition at 1 µM (MAK) of 0%.
